Laboratory results as given in ChEMBL document CHEMBL5465560, “Selectivity Literature for EUbOPEN Chemogenomic Library” (2024).

Key:
[1] = target: Serine/threonine-protein kinase MARK1 (Homo sapiens) (UniProt Q9P0L2); assay: Selectivity interaction (KinomeScan (DiscoverX)) EUB0001079a MARK1; settings: at 1 µM
[2] = target: T1, Serine/threonine-protein kinase Sgk2 (Homo sapiens) (UniProt Q9HBY8); assay: Selectivity interaction (KinomeScan (DiscoverX)) EUB0001079a SGK2; settings: at 1 µM
T1 sequence (whole entry): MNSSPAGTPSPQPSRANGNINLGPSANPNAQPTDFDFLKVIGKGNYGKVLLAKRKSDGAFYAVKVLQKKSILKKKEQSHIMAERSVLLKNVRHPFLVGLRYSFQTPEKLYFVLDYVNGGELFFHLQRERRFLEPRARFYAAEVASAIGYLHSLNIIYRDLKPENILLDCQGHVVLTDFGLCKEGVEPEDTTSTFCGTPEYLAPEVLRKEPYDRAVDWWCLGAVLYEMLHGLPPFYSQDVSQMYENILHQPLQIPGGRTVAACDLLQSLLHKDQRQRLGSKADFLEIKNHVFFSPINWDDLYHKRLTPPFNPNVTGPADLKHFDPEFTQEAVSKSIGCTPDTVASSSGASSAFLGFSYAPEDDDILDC

[3] = target: Ribosomal protein S6 kinase alpha-5 (Homo sapiens) (UniProt O75582); settings: at 10 µM
Chain of Ribosomal protein S6 kinase alpha-5 (Homo sapiens) (O75582 whole entry, looked up): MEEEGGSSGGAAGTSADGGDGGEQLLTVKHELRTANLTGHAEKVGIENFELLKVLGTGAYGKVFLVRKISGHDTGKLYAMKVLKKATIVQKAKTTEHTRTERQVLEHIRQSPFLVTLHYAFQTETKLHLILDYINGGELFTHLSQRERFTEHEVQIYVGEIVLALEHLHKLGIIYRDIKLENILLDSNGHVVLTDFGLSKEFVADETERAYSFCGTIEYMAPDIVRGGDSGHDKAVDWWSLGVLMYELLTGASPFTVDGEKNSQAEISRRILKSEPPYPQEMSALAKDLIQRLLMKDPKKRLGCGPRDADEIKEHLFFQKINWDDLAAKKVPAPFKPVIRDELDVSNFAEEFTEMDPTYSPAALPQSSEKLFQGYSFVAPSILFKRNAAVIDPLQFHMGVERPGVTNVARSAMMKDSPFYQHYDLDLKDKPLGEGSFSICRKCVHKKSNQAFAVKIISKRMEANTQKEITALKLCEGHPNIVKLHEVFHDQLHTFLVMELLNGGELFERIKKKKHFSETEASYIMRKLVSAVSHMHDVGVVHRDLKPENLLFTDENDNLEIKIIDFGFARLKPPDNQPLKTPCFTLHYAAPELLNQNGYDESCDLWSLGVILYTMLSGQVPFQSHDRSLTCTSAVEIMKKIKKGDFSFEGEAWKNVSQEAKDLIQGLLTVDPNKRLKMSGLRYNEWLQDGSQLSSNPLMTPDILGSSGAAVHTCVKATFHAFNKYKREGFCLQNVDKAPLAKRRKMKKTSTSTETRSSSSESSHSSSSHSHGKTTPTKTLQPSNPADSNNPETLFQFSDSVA

[4] = target: T2, Ephrin type-B receptor 6 (Homo sapiens) (UniProt O15197); assay: Selectivity interaction (KinomeScan (DiscoverX)) EUB0001619a EPHB6; settings: at 1 µM
T2 sequence (whole entry): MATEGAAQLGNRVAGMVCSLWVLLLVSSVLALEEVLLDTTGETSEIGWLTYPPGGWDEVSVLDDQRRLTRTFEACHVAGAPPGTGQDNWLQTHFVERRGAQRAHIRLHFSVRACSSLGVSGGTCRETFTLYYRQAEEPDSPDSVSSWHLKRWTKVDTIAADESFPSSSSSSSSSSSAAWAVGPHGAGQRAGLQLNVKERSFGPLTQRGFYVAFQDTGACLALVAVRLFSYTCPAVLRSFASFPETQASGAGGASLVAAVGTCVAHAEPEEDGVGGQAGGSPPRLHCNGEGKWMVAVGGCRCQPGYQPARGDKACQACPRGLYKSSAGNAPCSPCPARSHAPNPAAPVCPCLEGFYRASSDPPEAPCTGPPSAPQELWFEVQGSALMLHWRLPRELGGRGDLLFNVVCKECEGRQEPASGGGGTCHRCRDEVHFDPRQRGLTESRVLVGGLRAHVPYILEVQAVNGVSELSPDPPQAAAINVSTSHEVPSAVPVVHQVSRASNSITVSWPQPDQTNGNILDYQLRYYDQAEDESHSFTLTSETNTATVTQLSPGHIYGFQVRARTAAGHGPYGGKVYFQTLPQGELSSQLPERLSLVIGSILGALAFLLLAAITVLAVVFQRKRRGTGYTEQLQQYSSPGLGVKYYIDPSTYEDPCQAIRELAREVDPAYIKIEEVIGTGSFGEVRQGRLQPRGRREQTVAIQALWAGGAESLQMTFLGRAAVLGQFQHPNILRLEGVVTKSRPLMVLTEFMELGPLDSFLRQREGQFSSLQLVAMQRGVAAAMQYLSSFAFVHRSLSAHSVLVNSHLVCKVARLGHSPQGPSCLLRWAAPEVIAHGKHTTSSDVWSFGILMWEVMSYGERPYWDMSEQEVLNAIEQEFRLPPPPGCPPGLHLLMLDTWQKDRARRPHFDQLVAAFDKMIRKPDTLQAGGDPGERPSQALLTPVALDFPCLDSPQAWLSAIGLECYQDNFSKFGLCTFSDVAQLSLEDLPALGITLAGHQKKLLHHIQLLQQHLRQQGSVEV

[5] = target: Mitogen-activated protein kinase 11 (Homo sapiens) (UniProt Q15759); assay: Selectivity interaction (Kinase panel (Invitrogen)) EUB0000639a MAPK11; settings: at 200 nM
Chain of Mitogen-activated protein kinase 11 (Homo sapiens) (Q15759 whole entry): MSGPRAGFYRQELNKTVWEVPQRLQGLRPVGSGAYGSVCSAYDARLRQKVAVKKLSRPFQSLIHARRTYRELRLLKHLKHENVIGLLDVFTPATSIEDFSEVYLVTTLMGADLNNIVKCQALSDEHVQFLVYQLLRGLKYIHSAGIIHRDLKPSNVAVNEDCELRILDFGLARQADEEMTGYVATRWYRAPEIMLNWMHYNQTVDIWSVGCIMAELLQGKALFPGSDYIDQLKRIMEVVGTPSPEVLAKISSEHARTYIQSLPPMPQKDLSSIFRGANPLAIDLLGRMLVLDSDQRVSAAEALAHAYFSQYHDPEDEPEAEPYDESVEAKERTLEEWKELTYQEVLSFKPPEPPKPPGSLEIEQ

[6] = target: T3, Serine/threonine-protein kinase PLK4 (Homo sapiens) (UniProt O00444); assay: Selectivity interaction (Ambit KINOMEscan and KiNATiv profiling in Jurkat cells) EUB0000090b PLK4; assay type: cell-based; settings: at 1 µM
T3 sequence (whole entry): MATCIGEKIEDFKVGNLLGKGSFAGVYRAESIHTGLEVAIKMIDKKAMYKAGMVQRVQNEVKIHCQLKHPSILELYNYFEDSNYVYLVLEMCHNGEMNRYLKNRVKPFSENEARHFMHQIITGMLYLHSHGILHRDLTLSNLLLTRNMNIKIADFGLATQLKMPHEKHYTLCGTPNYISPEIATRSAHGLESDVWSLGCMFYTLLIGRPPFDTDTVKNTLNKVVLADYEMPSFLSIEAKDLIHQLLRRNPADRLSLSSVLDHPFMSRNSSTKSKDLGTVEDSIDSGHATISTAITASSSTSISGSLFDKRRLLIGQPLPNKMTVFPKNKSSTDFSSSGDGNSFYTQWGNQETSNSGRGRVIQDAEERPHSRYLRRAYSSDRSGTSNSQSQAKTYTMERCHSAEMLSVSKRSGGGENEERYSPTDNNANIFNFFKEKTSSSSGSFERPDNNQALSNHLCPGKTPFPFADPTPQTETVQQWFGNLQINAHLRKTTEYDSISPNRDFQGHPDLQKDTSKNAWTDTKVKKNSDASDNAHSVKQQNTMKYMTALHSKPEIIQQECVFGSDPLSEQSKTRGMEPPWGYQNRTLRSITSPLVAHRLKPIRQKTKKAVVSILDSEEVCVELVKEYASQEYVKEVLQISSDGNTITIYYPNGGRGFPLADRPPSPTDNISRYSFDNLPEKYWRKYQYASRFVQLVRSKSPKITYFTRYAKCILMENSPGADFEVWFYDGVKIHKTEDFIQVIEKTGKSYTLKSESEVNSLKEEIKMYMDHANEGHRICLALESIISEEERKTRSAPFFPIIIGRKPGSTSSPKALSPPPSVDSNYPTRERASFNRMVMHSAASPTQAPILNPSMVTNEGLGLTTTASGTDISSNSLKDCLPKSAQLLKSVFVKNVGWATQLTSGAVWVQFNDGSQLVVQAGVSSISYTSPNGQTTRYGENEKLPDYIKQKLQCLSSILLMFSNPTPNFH

Chain of Serine/threonine-protein kinase MARK1 (Homo sapiens) (Q9P0L2 whole entry, looked up): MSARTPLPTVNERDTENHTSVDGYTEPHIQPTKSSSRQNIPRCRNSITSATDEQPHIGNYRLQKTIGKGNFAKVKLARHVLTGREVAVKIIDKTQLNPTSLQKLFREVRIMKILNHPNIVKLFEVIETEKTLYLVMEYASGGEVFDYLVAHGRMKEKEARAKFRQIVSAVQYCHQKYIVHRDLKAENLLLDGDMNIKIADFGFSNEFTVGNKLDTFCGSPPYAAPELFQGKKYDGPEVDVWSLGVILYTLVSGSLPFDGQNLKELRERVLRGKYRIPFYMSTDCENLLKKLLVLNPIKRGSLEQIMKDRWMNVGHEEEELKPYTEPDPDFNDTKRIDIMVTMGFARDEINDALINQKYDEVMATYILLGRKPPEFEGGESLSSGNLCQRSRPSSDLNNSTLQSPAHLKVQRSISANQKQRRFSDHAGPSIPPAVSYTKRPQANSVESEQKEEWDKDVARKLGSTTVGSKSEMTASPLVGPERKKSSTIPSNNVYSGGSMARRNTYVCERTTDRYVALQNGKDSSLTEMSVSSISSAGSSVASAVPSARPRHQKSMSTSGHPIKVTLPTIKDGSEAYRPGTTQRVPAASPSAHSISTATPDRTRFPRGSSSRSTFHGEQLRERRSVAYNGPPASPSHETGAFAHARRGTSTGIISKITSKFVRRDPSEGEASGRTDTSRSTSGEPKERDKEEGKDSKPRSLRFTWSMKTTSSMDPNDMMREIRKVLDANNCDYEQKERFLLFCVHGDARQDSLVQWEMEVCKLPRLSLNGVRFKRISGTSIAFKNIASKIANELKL

With `Nc1cnc(N2CCc3cc(S(=O)(=O)Nc4c(F)cc(Cl)cc4F)cc(N4CCCC4=O)c32)nc1` [TP-020n] the % of control [1] was 76% and the % of control [2] was 76%.

`Cc1cc([C@@H](C)Nc2ccccc2C(=O)O)c2nc(N3CCOCC3)cc(=O)n2c1` [AZD-6482] was tested, and the % of control [3] was 91%.

In the case of `N#Cc1cccc(-c2c[nH]c3ncnc(N4CCOCC4)c23)c1`, the % of control [4] is reported as 86%.

Work on `CC[C@@H]1[C@H](F)C(=O)N[C@@H]1COc1nccc2cc(C(N)=O)c(OC)cc12` [ZIMLOVISERTIB] yielded a % of inhibition [5] of 5.62%.

Molecule `CN(C)C/C=C/C(=O)Nc1ccc(C(=O)N2CCCC(Nc3ncc(Cl)c(-c4c[nH]c5ccccc45)n3)C2)cc1` (stereo unspecified) has a % of control [6] of 82%.
